# Measured values reported in patent US6221865A, “Inhibitors of protein isoprenyl transferases” (priority 1998, dated 2001).
# Where a name gives a salt, the structure may show the parent alone.
# Molecular target: T1, protein farnesyltransferase (Rattus norvegicus, UniProt Q02293+Q04631)
# T1 construct: The enzyme is purified according to Reiss, Y., et al., Cell, 62: 81-88 (1990), utilizing steps one through three; from tissue; host or cells: rat brain
# Test: Inhibition of farnesyltransferase (scintillation proximity assay, rat brain enzyme, biotin-K Ras B fragment substrate)
# Assay type: biochemical
# Details: 1 × 10^-5 M (Table 1)
# Summary of the method: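 Enzyme from rat brain, partly purified (steps one to three), assayed by SPA kit using 0.1 mM final biotin-K Ras B peptide as prenyl acceptor rather than biotin-lamin. Activity given as percent inhibition.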
# T1 sequence (Q02293 whole entry, one chain of several): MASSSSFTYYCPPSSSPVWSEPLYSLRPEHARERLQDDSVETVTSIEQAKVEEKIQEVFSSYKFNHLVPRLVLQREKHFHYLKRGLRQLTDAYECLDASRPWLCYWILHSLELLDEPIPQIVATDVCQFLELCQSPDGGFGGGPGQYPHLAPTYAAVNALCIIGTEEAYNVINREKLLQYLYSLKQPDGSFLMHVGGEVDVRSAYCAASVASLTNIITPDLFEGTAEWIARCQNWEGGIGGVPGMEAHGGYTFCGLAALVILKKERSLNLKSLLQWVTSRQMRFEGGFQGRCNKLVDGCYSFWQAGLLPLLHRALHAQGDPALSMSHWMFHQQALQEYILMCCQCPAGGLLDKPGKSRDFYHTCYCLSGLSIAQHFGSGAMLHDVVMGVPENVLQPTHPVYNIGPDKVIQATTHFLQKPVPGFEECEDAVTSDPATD
row,Compound,% inhibition of farnesyltransferase at 1 × 10^-5 M [%]
1,CSCC[C@H](NC(=O)c1ccc(CNc2nccs2)cc1-c1ccccc1)C(=O)O [Example 374],61
2,CSCC[C@H](NC(=O)c1ccc(CNc2cc(C(C)(C)C)[nH]n2)cc1-c1ccccc1)C(=O)O [Example 381],79

# Same assay, conditions: 1 × 10^-6 M (Table 2)
row,Compound,% inhibition of farnesyltransferase at 1 × 10^-6 M [%]
1,CSCC[C@H](NC(=O)c1ccc(CN(CCO)c2ccccc2)cc1-c1ccccc1)C(=O)O [Example 505],72
2,CSCC[C@H](NC(=O)c1ccc(CNCC(O)c2cccc(O)c2)cc1-c1ccccc1)C(=O)O (some centres unmarked) [Example 661],45
3,CSCC[C@H](NC(=O)c1ccc(CNCCC2CCCCC2)cc1-c1ccccc1C)C(=O)O.O=C(O)C(F)(F)F [Example 607],96
4,CSCC[C@H](NC(=O)c1ccc(NCC(CO)Cc2ccccc2)cc1-c1ccccc1C)C(=O)O (some centres unmarked) [Example 476],91
5,CSCCC(NC(=O)c1ccc(NC(=O)C2CCCNC2)cc1-c1ccccc1)C(=O)O (centres unmarked) [Example 231],50
6,CSCC[C@H](NC(=O)c1ccc(NCCO)cc1-c1ccccc1)C(=O)O [Example 502],24
7,CSCC[C@H](NC(=O)c1ccc(COCc2ccoc2)cc1-c1ccccc1C)C(=O)O [Example 530],94
8,N-[4-(4-phenylcyclohexylidenyl)-2-(2-methylphenyl)benzoyl]methionine lithium salt [Example 789],86
9,CSCC[C@H](NC(=O)c1ccc(NC(=O)Cc2ccc(C)cc2)cc1-c1ccccc1C)C(=O)O [Example 541],37
10,CSCC[C@H](NC(=O)c1ccc(SCCc2ccccc2)cc1-c1ccccc1C)C(=O)O [Example 498],98
11,CSCC[C@H](NC(=O)c1ccc(NCC(CO)(Cc2ccccc2)Cc2ccccc2)cc1-c1ccccc1C)C(=O)O [Example 475],21
12,CSCC[C@H](NC(=O)c1ccc(CS(=O)(=O)Cc2ccccc2)cc1-c1ccccc1C)C(=O)O [Example 555],85

# Same assay, conditions: 1 × 10^-7 M (Table 3)
row,Compound,% inhibition of farnesyltransferase at 1 × 10^-7 M [%]
1,CSCC[C@H](NC(=O)c1ccc(COCc2ccc(C)o2)cc1-c1ccccc1C)C(=O)O [Example 532],88
2,CSCC[C@H](NC(=O)c1ccc(CSc2ccccc2C(C)C)cc1-c1ccccc1C)C(=O)O [Example 739],83
3,CSCC[C@H](NC(=O)c1ccc(COCC2CCC(c3ccc(Cl)cc3)O2)cc1-c1ccccc1C)C(=O)O (some centres unmarked) [Example 822],93
4,CSCC[C@H](NC(=O)c1ccc(CSCCc2ccccc2)cc1-c1ccccc1C)C(=O)[O-].[Li+] [Example 562],95
5,CSCC[C@H](NC(=O)c1ccc(CNC(CC2CCCCC2)C2CCCCC2)cc1-c1ccccc1C)C(=O)[O-].[Li+] (some centres unmarked) [Example 616],95
6,CSCC[C@H](NC(=O)c1ccc(CSCC2CCCCC2)cc1-c1ccccc1C)C(=O)[O-].[Li+] [Example 559],96
7,CSCC[C@H](NC(=O)c1ccc(COCc2ccc(-c3cccc(C(F)(F)F)c3)o2)cc1-c1ccccc1C)C(=O)[O-].[Li+] [Example 441],91
8,CSCC[C@H](NC(=O)c1ccc(COC(Cc2ccccc2)Cc2ccccc2)cc1-c1ccccc1C)C(=O)[O-].[Li+] [Example 522],93
9,CSCC[C@H](NC(=O)c1ccc(COCc2cnc(-c3ccc(Cl)cc3)o2)cc1-c1ccccc1C)C(=O)[O-].[Li+] [Example 894],89
10,CSCC[C@H](NC(=O)c1ccc(CN(c2ccccc2)S(=O)(=O)c2ccc(C)cc2)cc1-c1ccccc1C)C(=O)O [Example 770],91
11,CSCC[C@H](NC(=O)c1ccc(COCc2ccc(-c3cccc(F)c3)o2)cc1-c1ccccc1C)C(=O)[O-].[Li+] [Example 436],89
12,CCCCN(CCCC)C(=O)CNCc1ccc(C(=O)N[C@@H](CCSC)C(=O)O)c(-c2ccccc2C)c1 [Example 912],85

# Same assay, conditions: 1 × 10^-8 M (Table 4)
row,Compound,% inhibition of farnesyltransferase at 1 × 10^-8 M [%]
1,CSCC[C@H](NC(=O)c1ccc(COCc2ccc(-c3ccc(C(C)C)cc3)o2)cc1-c1ccccc1C)C(=O)[O-].[Li+] [Example 820],66
2,CSCC[C@H](NC(=O)c1ccc(CN[C@H](CSc2ccccc2C)CC2CCCCC2)cc1-c1ccccc1C)C(=O)O [Example 767],97
3,CSCC[C@H](NC(=O)c1ccc(COCc2ccccc2Cl)cc1-c1ccccc1C)C(=O)[O-].[Li+] [Example 930],66

# Same assay, conditions: Table 6, * = 0.1 μM (footnote); title prints 0.1 mM
row,Compound,% inhibition at 0.1 μM (*) [%]
1,CCCCC(OCc1ccc(C(=O)N[C@@H](CCSC)C(=O)[O-])c(-c2ccccc2C)c1)C1CCNCC1.[Li+] (some centres unmarked) [Example 1288],69
2,CCCCN(CCN1CCCCC1)Cc1ccc(C(=O)N[C@@H](CCSC)C(=O)O)c(-c2ccccc2C)c1 [Example 1196],87

# Same assay, conditions: read-out: % inhibition at 0.01 μM (**); Table 6, ** = 0.01 μM (footnote); title prints 0.01 mM
row,Compound,inhibition at 0.01 µM [%]
1,"CSCC[C@H](NC(=O)c1ccc(Cc2nnnn2Cc2ccccc2)cc1-c1ccccc1C)C(=O)O [Example 1099, N-[4-(1-benzyltetrazol-5-ylmethyl)-2-(2-methylphenyl)benzoyl]methionine]",87

# Same assay, conditions: read-out: % inhibition at 0.1 μM (*); Table 6, * = 0.1 μM (footnote); title prints 0.1 mM
row,Compound,inhibition at 0.1 µM [%]
1,CSCC[C@H](NC(=O)c1ccc(CN2CCC[C@H]2CN(C)C2CCCCC2)cc1-c1ccccc1C)C(=O)O [Example 1127],90

# Same assay, conditions: read-out: % inhibition of farnesyltransferase at 1 × 10^-6 M; 1 × 10^-6 M (Table 2)
row,Compound,inhibition at 1 µM [%]
1,"CSCC[C@H](NC(=O)c1ccc(C=Cc2ccccc2Cc2ccccc2)cc1-c1ccccc1C)C(=O)O [Example 457, N-[4-(2-(2-benzylphenyl)ethenyl)-2-(2-methylphenyl)benzoyl]methionine lithium salt]",92
2,"CSCC[C@H](NC(=O)c1ccc(/C=C/c2ccc3ccccc3c2)cc1-c1ccccc1C)C(=O)O [Example 465, N-[4-(2-naphth-2-ylethenyl)-2-(2-methylphenyl)benzoyl]methionine]",92
3,"CSCC[C@H](NC(=O)c1ccc(S(=O)(=O)NC2CCN(Cc3ccccc3)CC2)cc1-c1ccccc1C)C(=O)O [Example 773, lithium salt]",41
4,"CSCC[C@H](NC(=O)c1ccc(CN2CCCC(OCc3ccccc3)C2)cc1-c1ccccc1C)C(=O)O (some centres unmarked) [Example 989, N-[4-(3-benzyloxypiperidin-1-ylmethyl)-2-(2-methylphenyl)benzoyl]methionine]",88
5,CSCC[C@H](NC(=O)c1ccc(CN(C2CC2)C2(Cc3ccccc3)CC2)cc1-c1ccccc1C)C(=O)O [Example 323],98
6,"CSCC[C@H](NC(=O)c1ccc(CCCCC2CCCCC2)cc1-c1ccccc1C)C(=O)O [Example 478, N-[4-(4-cyclohexylbutyl)-2-(2-methyphenyl)benzoyl]methionine sodium salt]",98

# Same assay, conditions: read-out: % inhibition of farnesyltransferase at 1 × 10^-7 M; 1 × 10^-7 M (Table 3)
row,Compound,inhibition at 0.1 µM [%]
1,"CSCC[C@H](NC(=O)c1ccc(/C=C/c2ccc(Oc3ccccc3[N+](=O)[O-])cc2)cc1-c1ccccc1C)C(=O)O [Example 856, N-[4-(2-(4-(2-nitrophenoxy)phenyl)ethen-1-yl)-2-(2-methylphenyl)benzoyl]methionine]",97
2,"CCCC(CCC)NOCc1ccc(C(=O)N[C@@H](CCSC)C(=O)O)c(-c2ccccc2C)c1 [Example 929, N-[4-(N-Hept-4-ylaminooxymethyl)-2-(2-methylphenyl)benzoyl]methionine]",81
